#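 Briefly, cells in 96-well plates were exposed to five compound concentrations for 48 h, and endpoints were estimated by linear interpolation. TGI: total growth inhibition.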
# Columns and labels:
# Test in all cases: NCI tumour cell line growth inhibition, 48 h
# DMS 114 small cell lung = tested on: DMS 114 small cell lung
# OVCAR-3 ovarian = tested on: OVCAR-3 ovarian
# RPMI-8226 leukemia = tested on: RPMI-8226 leukemia
# SF-268 CNS = tested on: SF-268 CNS
# SK-MEL-5 melanoma = tested on: SK-MEL-5 melanoma
# A498 renal = tested on: A498 renal
# SNB-19 CNS = tested on: SNB-19 CNS
# RXF 393 renal = tested on: RXF 393 renal
# UACC-62 melanoma = tested on: UACC-62 melanoma
# HCT-116 colon = tested on: HCT-116 colon
# KM12 colon = tested on: KM12 colon
# NCI-H226 lung = tested on: NCI-H226 lung
# SN12K1 renal = tested on: SN12K1 renal
# SNB-75 CNS = tested on: SNB-75 CNS
# NCI-H23 lung = tested on: NCI-H23 lung
# HOP-62 NSCLC = tested on: HOP-62 NSCLC
# SF-295 CNS = tested on: SF-295 CNS
# OVCAR-4 ovarian = tested on: OVCAR-4 ovarian
# NCI-H460 lung = tested on: NCI-H460 lung
# A549 NSCLC = tested on: A549 NSCLC
# M19-MEL melanoma = tested on: M19-MEL melanoma
# HOP-18 NSCLC = tested on: HOP-18 NSCLC
# SN12C renal = tested on: SN12C renal
# P388/ADR leukemia = tested on: P388/ADR leukemia
# UACC-257 melanoma = tested on: UACC-257 melanoma
# SW-620 colon = tested on: SW-620 colon
# LOX IMVI melanoma = tested on: LOX IMVI melanoma
# HT29 colon = tested on: HT29 colon
# NCI-H522 lung = tested on: NCI-H522 lung
# P388 leukemia = tested on: P388 leukemia
# SK-MEL-2 melanoma = tested on: SK-MEL-2 melanoma
# U251 CNS = tested on: U251 CNS
# SF-539 CNS = tested on: SF-539 CNS
# KM20L2 colon = tested on: KM20L2 colon
# HCC-2998 colon = tested on: HCC-2998 colon
# COLO 205 colon = tested on: COLO 205 colon
# HOP-92 NSCLC = tested on: HOP-92 NSCLC
# DMS 273 small cell lung = tested on: DMS 273 small cell lung
# EKVX NSCLC = tested on: EKVX NSCLC
# SK-OV-3 ovarian = tested on: SK-OV-3 ovarian
# IGROV1 ovarian = tested on: IGROV1 ovarian
# MOLT-4 leukemia = tested on: MOLT-4 leukemia
# UO-31 renal = tested on: UO-31 renal
# NCI/ADR-RES ovarian = tested on: NCI/ADR-RES ovarian
# DLD-1 colon = tested on: DLD-1 colon
# CCRF-CEM leukemia = tested on: CCRF-CEM leukemia
# MCF7 breast = tested on: MCF7 breast
# SNB-78 CNS = tested on: SNB-78 CNS
# MALME-3M melanoma = tested on: MALME-3M melanoma
# OVCAR-8 ovarian = tested on: OVCAR-8 ovarian
# XF 498 CNS = tested on: XF 498 CNS
# SK-MEL-28 melanoma = tested on: SK-MEL-28 melanoma
# CAKI-1 renal = tested on: CAKI-1 renal
# OVCAR-5 ovarian = tested on: OVCAR-5 ovarian
# HL-60(TB) leukemia = tested on: HL-60(TB) leukemia
# HCT-15 colon = tested on: HCT-15 colon
# K-562 leukemia = tested on: K-562 leukemia
smiles,measurement,setting,value
CN(C)C(=O)OCOC(=O)N(C)C,TGI,DMS 114 small cell lung,> 100 µM
same,TGI,OVCAR-3 ovarian,> 100 µM
same,TGI,RPMI-8226 leukemia,> 100 µM
same,TGI,SF-268 CNS,> 100 µM
same,TGI,SK-MEL-5 melanoma,> 100 µM
same,TGI,A498 renal,> 100 µM
same,TGI,SNB-19 CNS,> 100 µM
same,TGI,RXF 393 renal,> 100 µM
same,TGI,UACC-62 melanoma,> 100 µM
same,TGI,HCT-116 colon,> 100 µM
same,TGI,KM12 colon,> 100 µM
same,TGI,NCI-H226 lung,> 100 µM
same,TGI,SN12K1 renal,> 100 µM
same,TGI,SNB-75 CNS,> 100 µM
same,TGI,NCI-H23 lung,> 100 µM
same,TGI,HOP-62 NSCLC,> 100 µM
same,TGI,SF-295 CNS,> 100 µM
same,TGI,OVCAR-4 ovarian,> 100 µM
same,TGI,NCI-H460 lung,> 100 µM
same,TGI,A549 NSCLC,> 100 µM
same,TGI,M19-MEL melanoma,> 100 µM
same,TGI,HOP-18 NSCLC,> 100 µM
same,TGI,SN12C renal,> 100 µM
same,TGI,P388/ADR leukemia,> 100 µM
same,TGI,UACC-257 melanoma,> 100 µM
same,TGI,SW-620 colon,> 100 µM
same,TGI,LOX IMVI melanoma,> 100 µM
same,TGI,HT29 colon,> 100 µM
same,TGI,NCI-H522 lung,> 100 µM
same,TGI,P388 leukemia,> 100 µM
same,TGI,SK-MEL-2 melanoma,> 100 µM
same,TGI,U251 CNS,> 100 µM
same,TGI,SF-539 CNS,> 100 µM
same,TGI,KM20L2 colon,> 100 µM
same,TGI,HCC-2998 colon,> 100 µM
same,TGI,COLO 205 colon,> 100 µM
same,TGI,HOP-92 NSCLC,> 100 µM
same,TGI,DMS 273 small cell lung,> 100 µM
same,TGI,EKVX NSCLC,> 100 µM
same,TGI,SK-OV-3 ovarian,> 100 µM
same,TGI,IGROV1 ovarian,> 100 µM
same,TGI,MOLT-4 leukemia,> 100 µM
same,TGI,UO-31 renal,> 100 µM
same,TGI,NCI/ADR-RES ovarian,> 100 µM
same,TGI,DLD-1 colon,> 100 µM
same,TGI,CCRF-CEM leukemia,> 100 µM
same,TGI,MCF7 breast,> 100 µM
same,TGI,SNB-78 CNS,> 100 µM
same,TGI,MALME-3M melanoma,> 100 µM
same,TGI,OVCAR-8 ovarian,> 100 µM
same,TGI,XF 498 CNS,> 100 µM
same,TGI,SK-MEL-28 melanoma,> 100 µM
same,TGI,CAKI-1 renal,> 100 µM
same,TGI,OVCAR-5 ovarian,> 100 µM
same,TGI,HL-60(TB) leukemia,> 31.6 µM
same,TGI,HCT-15 colon,> 100 µM
same,TGI,K-562 leukemia,> 100 µM
